From article PMC6556873, “Rapid Covalent-Probe Discovery by Electrophile-Fragment Screening” (Journal of the American Chemical Society, 2019)
Read-outs that look alike come from different tables or passages of the source.

Legend:
in vitro [1] = assay: in vitro; design: species or system CCD841, HEK293; details: human, hb2 cells, read-out: HB-2 Cells Viability (%)
NUDT7 = target: T1, NUDT7 (Homo sapiens, UniProt P0C024); design: Intact protein LC/MS covalent labelling, fragments in pools of five, 200 uM each, 4 °C; details: 24 h, 4 °C, pool of five; 200 µM; covalent
T1 construct: residues 14-235, E. coli, pNIC28-Bsa4, N-terminal His6 tag removed by TEV, construct 26672 Da
Method: (§1) Incubations were performed at 200 μM for each compound and 2 μM of protein (10 μM for BSA) for 24 h at 4 °C with moderate shaking. Incubation buffers varied among proteins (PBS pH 7.4 for QSOX1 and BSA; 10 mM HEPES pH 7.5, 0.3 M NaCl, 0.5 mM TCEP for PCAF, UPS8, and NUDT7; […]; 10 mM Na2HPO4 pH 7.5 100 mM NaCl 5 mM β-mercaptoethanol for NV3CP; 20 mM Na phosphate pH 7.5 for NNMT; […]. The reaction was stopped by quenching with formic acid, 0.4% final concentration. Each protein was incubated with the electrophilic library in pools of five compounds per well. The pool’s composition maximized the difference in mass between fragments in the same well. Incubations were performed with each fragment at 200 μM, for 24 h at 4 °C, to allow the screening of proteins that are not stable for long time periods at higher temperatures. Following incubation, we used intact protein [compound left out] chromatography/mass spectrometry (LC/MS) to identify the fragments and quantify their labeling (Figure 3A). […] There was good agreement between the percent of labeling of NUDT7 by 100 random individual compounds and that obtained in pools of five (R^2=0.78; Figure S6 and Data set 2 in the Supporting Information).

PCAF = target: T2, PCAF (Homo sapiens, UniProt Q92831); design: Intact protein LC/MS covalent labelling, fragments in pools of five, 200 uM each, 4 °C; details: 24 h, 4 °C, pool of five; 200 µM; covalent
T2 construct: gene KAT2B
Method: as §1

OTUB2 (OTUB2A) = target: T3, OTUB2 (OTUB2A) (Homo sapiens, UniProt Q96DC9); design: Intact protein LC/MS covalent labelling, fragments in pools of five, 200 uM each, 4 °C; details: 24 h, 4 °C, pool of five; 200 µM; covalent
T3 construct: full length residues 1-234, E. coli BL21(DE3)-R3, His tag removed by TEV, construct 27312 Da
T3 sequence (Q96DC9 1-234): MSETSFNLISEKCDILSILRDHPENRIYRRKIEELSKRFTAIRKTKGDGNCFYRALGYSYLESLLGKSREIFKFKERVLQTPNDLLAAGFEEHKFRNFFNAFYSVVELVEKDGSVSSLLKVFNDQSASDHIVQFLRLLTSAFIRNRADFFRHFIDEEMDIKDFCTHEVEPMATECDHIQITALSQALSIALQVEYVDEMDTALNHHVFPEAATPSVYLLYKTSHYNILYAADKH
Method: as §1

BSA = target: T4, BSA (Bos taurus, UniProt P02769); design: Intact protein LC/MS covalent labelling, fragments in pools of five, 200 uM each, 4 °C; details: 24 h, 4 °C, pool of five; 200 µM; covalent
T4 construct: gene ALB
Method: as §1

in vitro [2] = assay: in vitro; design: species or system HB2, CCD841; details: human, hek293 cells
in vitro [3] = assay: in vitro; design: species or system HB2, HEK293; details: human, ccd841 cells

T2 sequence (Q92831 whole entry, the tested form may be a part): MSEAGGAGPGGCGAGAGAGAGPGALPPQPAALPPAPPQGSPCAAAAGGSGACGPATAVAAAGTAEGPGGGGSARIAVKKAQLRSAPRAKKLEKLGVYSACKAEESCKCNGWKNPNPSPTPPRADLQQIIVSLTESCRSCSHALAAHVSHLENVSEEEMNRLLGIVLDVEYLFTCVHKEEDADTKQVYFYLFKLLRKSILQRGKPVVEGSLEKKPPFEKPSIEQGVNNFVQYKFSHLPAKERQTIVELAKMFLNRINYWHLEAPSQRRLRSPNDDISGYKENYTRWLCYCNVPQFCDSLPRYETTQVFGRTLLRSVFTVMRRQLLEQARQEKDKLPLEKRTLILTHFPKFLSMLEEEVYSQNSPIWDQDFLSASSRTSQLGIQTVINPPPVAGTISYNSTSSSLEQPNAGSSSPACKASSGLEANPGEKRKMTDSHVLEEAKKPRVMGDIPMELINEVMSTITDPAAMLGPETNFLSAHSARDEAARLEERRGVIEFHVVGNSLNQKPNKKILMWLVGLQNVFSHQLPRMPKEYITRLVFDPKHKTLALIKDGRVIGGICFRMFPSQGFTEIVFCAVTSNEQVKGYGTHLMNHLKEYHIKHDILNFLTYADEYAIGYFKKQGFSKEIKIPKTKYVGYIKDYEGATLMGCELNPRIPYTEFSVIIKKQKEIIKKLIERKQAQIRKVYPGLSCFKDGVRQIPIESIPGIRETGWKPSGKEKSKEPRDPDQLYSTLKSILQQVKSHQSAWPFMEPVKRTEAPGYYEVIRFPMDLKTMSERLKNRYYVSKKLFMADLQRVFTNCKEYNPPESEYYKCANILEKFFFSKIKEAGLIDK
T4 sequence (P02769 whole entry, the tested form may be a part): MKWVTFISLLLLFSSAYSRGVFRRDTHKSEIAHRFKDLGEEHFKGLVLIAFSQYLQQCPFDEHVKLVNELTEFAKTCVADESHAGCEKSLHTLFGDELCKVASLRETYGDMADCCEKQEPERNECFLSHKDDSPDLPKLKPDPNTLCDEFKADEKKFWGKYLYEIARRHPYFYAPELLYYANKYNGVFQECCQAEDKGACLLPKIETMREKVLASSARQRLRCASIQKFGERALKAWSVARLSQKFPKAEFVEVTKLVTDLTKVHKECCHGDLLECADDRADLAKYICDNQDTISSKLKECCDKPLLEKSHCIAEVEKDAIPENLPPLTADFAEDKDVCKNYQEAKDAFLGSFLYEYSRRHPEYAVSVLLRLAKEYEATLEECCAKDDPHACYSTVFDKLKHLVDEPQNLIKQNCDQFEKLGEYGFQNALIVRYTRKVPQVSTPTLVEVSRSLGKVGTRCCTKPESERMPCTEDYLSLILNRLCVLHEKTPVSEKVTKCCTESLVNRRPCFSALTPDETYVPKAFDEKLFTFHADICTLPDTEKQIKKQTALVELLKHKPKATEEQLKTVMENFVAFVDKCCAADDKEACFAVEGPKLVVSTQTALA
T1 sequence (P0C024 14-235): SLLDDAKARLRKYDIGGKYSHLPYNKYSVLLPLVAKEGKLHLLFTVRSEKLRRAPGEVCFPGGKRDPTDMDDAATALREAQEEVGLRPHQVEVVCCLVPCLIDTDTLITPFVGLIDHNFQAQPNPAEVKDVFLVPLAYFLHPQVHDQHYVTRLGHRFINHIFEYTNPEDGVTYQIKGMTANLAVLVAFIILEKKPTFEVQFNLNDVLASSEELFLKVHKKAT

Row | Compound | viability at 48 h, 10 µM (in vitro [1]) [%] | NUDT7 (NUDT7) | PCAF (PCAF) | OTUB2 (OTUB2 (OTUB2A)) | BSA (BSA) | viability at 48 h, 10 µM (in vitro [2]) [%] | viability at 48 h, 10 µM (in vitro [3]) [%]
1 | COc1cc(Cl)c(C)cc1NC(=O)CCl [PCM-0102210] | 8.5 | 0 | 0 | 0.25 | 0 | 5.5 | 64.1
2 | Cc1nnc(NC(=O)CCl)s1 [PCM-0102211] | 99.8 | 0 | 0 | 0 | 0 | 90.5 | 86.7
3 | CC(NC(=O)CCl)c1ccc(Cl)cc1Cl (centres unmarked) [PCM-0102212] | 37.4 | 0.54 | 0 | 0.18 | 0 | 37.3 | 58.2
4 | Cl.O=C(CCl)N1CCN(c2ccccn2)CC1 [PCM-0102213] | 84.5 | 0 | 0 | 0 | 0 | 81.6 | 94.7
5 | CC1CCN(C(=O)CCl)c2ccccc2S1 (centres unmarked) [PCM-0102216] | 77.3 | 0.32 | 0 | 0 | 0 | 42.4 | 52.4
6 | O=C(CCl)Nc1ccc(F)c(Cl)c1 [PCM-0102217] | 2.5 | 0 | 0 | 0.14 | 0.13 | 1.1 | 18.8
7 | O=C(CCl)Nc1cc(C(F)(F)F)ccc1-n1cncn1 [PCM-0102218] | 42.2 | 0.28 | 0 | 0 | 0 | 17.7 | 63.7
8 | O=C(Nc1ccccc1)C1CCN(C(=O)CCl)CC1 [PCM-0102219] | 5.6 | 0 | 0 | 0 | 0 | 5.6 | 34.2
9 | CS(=O)(=O)c1ccc(Cl)c(NC(=O)CCl)c1 [PCM-0102220] | 45.5 | 0.05 | 0 | 0 | 0 | 21.3 | 60.9
10 | CNC(=O)C1CN(C(=O)CCl)c2ccccc2O1 (centres unmarked) [PCM-0102221] | 82.1 | 0 | 0 | 0.15 | 0 | 53 | 58.1
11 | O=C(CCl)NC(=O)c1cccs1 [PCM-0102222] | 110 | 0 | 0 | 0 | 0.2 | 109 | 105
12 | N#CC(c1cccs1)N1CCN(C(=O)CCl)CC1 (centres unmarked) [PCM-0102223] | 74 | 0 | 0 | 0 | 0 | 64.6 | 75.5
13 | Cc1ccc(-n2nc(C)cc2NC(=O)CCl)cc1 [PCM-0102224] | 49.3 | 0 | 0 | 0.35 | 0 | 24.9 | 67.5
14 | Cc1n[nH]c(=O)c2c(NC(=O)CCl)oc(C)c12 [PCM-0102226] | 108 | 0 | 0 | 0 | 0 | 104 | 112
